Experiments:
[1] = tested on: dexamethasone-suppressed male FVB/N mice; test: in vivo Serum Corticosteroid Induction Assay (Example 1); design: species or system mouse; conditions: for in vivo activity, % corticosterone induction relative to mACTH(1-24): FIG. 5, method of Example 1; for Percent reduction in serum corticosteroid: relative to unmodified mACTH(1-24), 1 μg subcutaneously to dexamethasone-suppressed mice, blood one hour later
Method: An in vivo Serum Corticosteroid Induction Assay measures the level of corticosteroid or corticosterone in the blood stream of a subject. More specifically, the in vivo Serum Corticosteroid Induction Assay can include the following steps: first, an agent to suppress endogenous ACTH production was administered to a mouse subject, such as an intraperitoneal injection of dexamethasone; second, after waiting a suitable period of time for suppression of endogenous ACTH production (e.g., 1.5-2.0 hours), a test compound can be administered to the mouse by a suitable method, such as intraperitoneal or subcutaneous injection; and third, after waiting a suitable period of time (e.g., 1 hour) for action of the injected test compound, a blood sample can be taken from the subject and the level of serum corticosterone can be determined by a suitable method, such as a competitive radioimmunoassay using ^125I RIA kit (ICN, Costa Mesa, Calif.). Example 1 describes a murine in vivo Serum Corticosteroid Induction Assay in detail.
The corticosteroid or corticosterone secretion induced in vivo by an ACTH analog compound was compared to the level of corticosteroid secretion produced by an unmodified ACTH compound by measuring blood serum corticosteroid after administering either the ACTH or ACTH analog as test compounds. […] ACTH analog compositions with decreased function were identified by measuring corticosterone levels using standard radioimmunoassay (RIA) analysis on blood samples collected one hour after administering the mACTH(1-24) or ACTH analog compound to dexamethasone-suppressed mice. In FIG. 1, the potency of various ACTH analog peptides is expressed as percent induction of corticosterone, with mouse ACTH being 100%. […] The percent of corticosterone induction 12 of ACTH analog Compounds in Samples 2-10 are shown as a percentage of the concentration of serum corticosterone 20 measured for unmodified mACTH(1-24) in the in vivo Serum Corticosteroid Adrenal Induction Assay. The structural modifications and measured percentage reduction in serum measured for Samples 2-10 in FIG. 1 are shown in Table 3 below.
The in vivo Serum Corticosteroid Induction Assay was performed according the following method. First, two to three month-old male FVB/N mice from our colony, five per group, were injected intraperitoneally with dexamethasone (0.4 mg/0.1 ml PBS per mouse; Sigma, St. Louis, Mo.) to suppress their endogenous ACTH production. See Hajos, G T et al., “Studies of the potency of polypeptides with ACTH action by a new method based on continuous measurement of plasma corticosterone,” Steroids Lipids Res 3:225-228 (1972), Costa, J L, et al., “Mutational analysis of evolutionarily conserved ACTH residues,” Gen Comp Endocrinol, 136:12-16 (2004), and Karpac, J, et al., “Development, Maintenance, and Function of the Adrenal Gland in Early Postnatal Pro-opiomelanocortin Null Mutant Mice,” Endocrinology (2005), published online ahead of print Feb. 24, 2005, all of which are incorporated herein by reference.
Second, ninety to one hundred twenty minutes later, the dexamethasone-suppressed mice were injected subcutaneously between the shoulder blades with either unmodified mACTH(1-24) or one of several ACTH analog peptide compounds (1 μg/0.1 mL PBS/0.5% BSA), or with vehicle alone (control) (0.1 mL PBS/0.5% BSA). The following ACTH analog peptide compounds were administered to separate mice: 1: murine ACTH1-24; 2: V26F,E30K; 3: P19W,K21E,Y23R; 4: E30K,P36R; 5: ALA19-24; 6: V26F,P36R; 7: P19W, K21E; 8: P19W,K21A,delY23; 9: P19W,K21A; 10: KRRP16-19RAAW (AT814) (SEQ ID NO:20).
Third, one hour later, blood was collected within less than 1 minute from a small incision in the tail, and serum was flash-frozen and stored at −80° C. until assayed. Serum corticosterone was determined by competitive radioimmunoassay (^125I RIA kit; ICN, Costa Mesa, Calif.) according to the manufacturer's recommendations. One microliter of serum was used per assay sample. […]

[2] = tested on: explanted mouse adrenal membrane (adrenal halves); test: in vitro Serum-free Adrenal Inhibition Assay (Example 4); format: cell-based; conditions: for in vitro activity, % corticosterone induction relative to mACTH(1-24): FIG. 5, method of Example 4; for in vitro activity compared with in vivo activity of the same analog: FIG. 5, in vitro Example 4, in vivo Example 1
Method: A series of separate in vitro Serum-Free Adrenal Corticosteroid Inhibition Assay were performed to identify ACTH analogs that inhibit ACTH-induced adrenal hormone production in vitro. The concentration of corticosterone was measured according to the procedure of Example 4 in a serum-free culture medium containing explanted adrenal membrane and unmodified ACTH, AT814 ACTH analog (SEQ ID NO:20), or a combination of ACTH and AT814 at 100 ng/mL each. […] Corticosterone levels were taken at 2.0 hours after the adrenal membrane was placed in the serum free M199 medium, and each corticosterone level in Table 5 is an average of five samples.
The in vitro Serum-free Adrenal Inhibition Assay was performed according the following method. First, adrenals were removed from mice, dissected free of fat, and cut in half. See Costa, J L, et al., “Mutational analysis of evolutionarily conserved ACTH residues,” Gen Comp Endocrinol. 136:12-16 (2004); and Weber, M M, et al., “Postnatal overexpression of insulin-like growth factor II in transgenic mice is associated with adrenocortical hyperplasia and enhanced steroidogenesis,” Endocrinology 140:1537-1543 (1999), incorporated herein by reference.
Second, each adrenal half was placed into an individual well of a 4-well dish, one dish per mouse. Adrenal halves were incubated at 5% CO2, 37° C., in 0.5 ml serum-free medium (M199; Invitrogen) for 30 minutes to equilibrate.
Third, medium was removed and replaced by 0.5 ml M199 containing ACTH, AT814, or both, at 100 ng/ml each; controls had no peptides added.
Fourth, after 2 hours of incubation, the medium was removed, pooled for all four halves from each mouse, and assayed by corticosterone using standard RIA methods. corticosterone was determined by competitive radioimmunoassay (^125I RIA kit; ICN, Costa Mesa, Calif.) according to the manufacturer's recommendations. One microliter of serum was used per assay sample. Samples were run in duplicates.

Row | Substance | in vivo activity, % corticosterone induction relative to mACTH(1-24) [1] | in vitro activity, % corticosterone induction relative to mACTH(1-24) [2] | in vitro activity compared with in vivo activity of the same analog [2] | Percent reduction in serum corticosteroid [1] [%] | in vivo activity, percent greater than the in vitro activity of unmodified mACTH ([1]; FIG. 5) | serum half life ([1]; inferred from in vivo versus in vitro activity, FIG. 5)
1 | (K15A, R17A)mACTH(1-24) [ACTH analog 410] | reduced | reduced | greater than its in vivo activity |  |  | 
2 | (K15Q, R17Q)mACTH(1-24) [ACTH analog 440] | reduced | reduced | greater than its in vivo activity |  |  | 
3 | (K16A, R17A)mACTH(1-24) [ACTH analog 420] | reduced | reduced | greater than its in vivo activity |  |  | 
4 | (K16A, R18A)mACTH(1-24) [ACTH analog 430] | reduced | reduced | greater than its in vivo activity |  |  | 
5 | (P19W, K21A)mACTH (SYSMEHFRWGKPVGKKRRWVAVYPNVAENESAEAFPLEF; Corticotropin residues 1-24; UniProt P01193 124-162, looked up, variant P19W K21A) [Sample 9] | reduced | reduced | greater than its in vivo activity |  |  | 
6 | (P19W, K21A, delY23)mACTH (SYSMEHFRWGKPVGKKRRWVAVPNVAENESAEAFPLEF; Corticotropin; UniProt P01193 124-162, looked up, variant P19W K21A Y23*) [Sample 8] |  |  |  | 76.0 |  | 
7 | (PVKVYP19-24AAAAA)mACTH [Sample 5] | greater relative to both mACTH and to other ACTH analogs |  |  | 51 | about 50% | increased serum half life

Reference: US7919577B2, “Adrenocorticotropic hormone analogs and related methods” (Colorado Seminary, priority 2004, dated 2011)
